ChEMBL document CHEMBL5291721, “A preclinical secondary pharmacology resource illuminates target-adverse drug reaction associations of marketed drugs” (Nat Commun, 2023)

Experiments:
[1] = target: T1, Alpha-1A adrenergic receptor (Homo sapiens, UniProt P35348); format: functional, cell-based
T1 sequence (P35348 whole entry): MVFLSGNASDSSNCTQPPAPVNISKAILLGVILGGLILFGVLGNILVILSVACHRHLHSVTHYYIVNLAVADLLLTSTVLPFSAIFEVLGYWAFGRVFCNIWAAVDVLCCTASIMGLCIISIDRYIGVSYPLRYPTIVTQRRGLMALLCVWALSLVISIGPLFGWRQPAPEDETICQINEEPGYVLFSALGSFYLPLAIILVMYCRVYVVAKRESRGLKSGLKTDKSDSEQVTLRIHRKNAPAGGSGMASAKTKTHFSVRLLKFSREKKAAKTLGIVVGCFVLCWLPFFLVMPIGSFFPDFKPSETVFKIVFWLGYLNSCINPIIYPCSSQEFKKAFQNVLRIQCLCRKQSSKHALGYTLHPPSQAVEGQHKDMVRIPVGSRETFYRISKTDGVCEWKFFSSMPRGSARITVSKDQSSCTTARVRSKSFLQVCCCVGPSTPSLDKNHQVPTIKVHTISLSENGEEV

Melanocortin receptor 4 = Melanocortin receptor 4 (Homo sapiens, UniProt P32245)
[2] = target: T1, Alpha-1A adrenergic receptor
Also: assay procedure not described here.

Chain of Melanocortin receptor 4 (P32245 whole entry): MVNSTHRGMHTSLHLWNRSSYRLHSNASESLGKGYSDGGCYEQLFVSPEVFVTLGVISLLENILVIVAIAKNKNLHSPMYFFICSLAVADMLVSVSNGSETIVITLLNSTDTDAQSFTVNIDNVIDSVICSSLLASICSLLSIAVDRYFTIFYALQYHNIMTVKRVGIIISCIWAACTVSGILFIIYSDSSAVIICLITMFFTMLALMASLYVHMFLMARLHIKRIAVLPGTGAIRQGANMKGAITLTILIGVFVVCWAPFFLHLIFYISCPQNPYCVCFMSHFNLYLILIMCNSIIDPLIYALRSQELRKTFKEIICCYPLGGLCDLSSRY

| SMILES | AC50 [1] [µM] | AC50 (Melanocortin receptor 4) [µM] | AC50 [2] [µM] |
| --- | --- | --- | --- |
| COc1ccc(-c2ccc3cc(C(=O)O)ccc3c2)cc1C12CC3CC(CC(C3)C1)C2 | > 30 | – | – |
| CCOC(=O)[C@H](CCc1ccccc1)N[C@@H](C)C(=O)N1C(=O)N(C)C[C@H]1C(=O)O | > 30 | – | – |
| NCC[C@H](O)C(=O)N[C@@H]1C[C@H](N)[C@@H](O[C@H]2O[C@H](CN)[C@@H](O)[C@H](O)[C@H]2O)[C@H](O)[C@H]1O[C@H]1O[C@H](CO)[C@@H](O)[C@H](N)[C@H]1O [AMIKACIN] | – | > 10 | > 10 |
| O=C(O)CCCCCCNC1c2ccccc2CCc2ccccc21 [AMINEPTINE] | > 30 | – | – |
| CCOC(=O)OC(C)OC1=C(C(=O)Nc2ccccn2)N(C)S(=O)(=O)c2ccccc21 (configuration not stated) [AMPIROXICAM] | > 30 | – | – |
| O=C(O)CCCCCCCC(=O)O [AZELAIC ACID] | – | > 10 | > 30 |
| COC(=O)C1=C(C)NC(C)=C(C(=O)OC2CCCN(Cc3ccccc3)C2)C1c1cccc([N+](=O)[O-])c1 (configuration not stated) [BENIDIPINE] | – | – | 3 |
| CC(C[N+](C)(C)C)OC(N)=O (configuration not stated) [BETHANECHOL] | – | > 10 | > 10 |
| Nc1nc(/C(=C/CC(=O)O)C(=O)N[C@@H]2C(=O)N3C(C(=O)O)=CCS[C@H]23)cs1 [CEFTIBUTEN] | > 30 | > 30 | – |
| CC(=O)OCC(=O)[C@@]12N=C(C)O[C@@H]1C[C@H]1[C@@H]3CCC4=CC(=O)C=C[C@]4(C)[C@H]3[C@@H](O)C[C@@]12C [DEFLAZACORT] | > 30 | – | – |
| C[C@]1(O)CC[C@H]2[C@@H]3CCC4=CC(=O)CC[C@]4(C)[C@@]3(F)[C@@H](O)C[C@@]21C [FLUOXYMESTERONE] | – | > 10 | > 30 |
| Cc1ccc(S(=O)(=O)NC(=O)NN2CC3CCCC3C2)cc1 (configuration not stated) [GLICLAZIDE] | – | > 10 | > 30 |
| CCCC(=O)O[C@]1(C(=O)CO)CC[C@H]2[C@@H]3CCC4=CC(=O)CC[C@]4(C)[C@H]3[C@@H](O)C[C@@]21C [HYDROCORTISONE BUTYRATE] | – | > 10 | > 10 |
| Nc1nc(N)nc(-c2cc(Cl)ccc2Cl)n1 [IRSOGLADINE] | > 30 | – | – |
| CO[C@@H]1[C@@H](O[C@@H]2O[C@H](C)[C@@H](O[C@H]3C[C@@](C)(O)[C@@H](OC(=O)CC(C)C)[C@H](C)O3)[C@H](N(C)C)[C@H]2O)[C@@H](CC=O)C[C@@H](C)[C@@H](O)/C=C/C=C/C[C@@H](C)OC(=O)C[C@H]1OC(C)=O [JOSAMYCIN] | – | > 10 | – |
| COC(=O)C1=C(C)NC(C)=C(C(=O)OC(C)(C)CN(C)CCC(c2ccccc2)c2ccccc2)C1c1cccc([N+](=O)[O-])c1 (configuration not stated) [LERCANIDIPINE] | – | > 30 | 5.7 |
| Cc1cccc(C(C)c2cnc[nH]2)c1C (configuration not stated) [MEDETOMIDINE] | – | > 30 | 0.11 |
| C[C@](N)(Cc1ccc(O)c(O)c1)C(=O)O [METHYLDOPA] | – | > 10 | 7.1 |
| O=C(O)[C@H](CC(=O)N1C[C@H]2CCCC[C@H]2C1)Cc1ccccc1 [MITIGLINIDE] | – | > 10 | > 10 |
| O=C(NCCN1CCOCC1)c1ccc(Cl)cc1 [MOCLOBEMIDE] | – | > 10 | > 10 |
| C#C[C@]1(O)CC[C@H]2[C@@H]3CCc4cc(OC5CCCC5)ccc4[C@H]3CC[C@@]21C [QUINESTROL] | – | > 10 | > 10 |
| COC(=O)[C@H]1[C@H]2C[C@@H]3c4[nH]c5cc(OC)ccc5c4CCN3C[C@H]2C[C@@H](OC(=O)/C=C/c2cc(OC)c(OC)c(OC)c2)[C@@H]1OC [RESCINNAMINE] | – | > 10 | – |
| CC(CC(c1ccccc1)c1ccccc1)NC(C)(C)C (configuration not stated) [TERODILINE] | 12 | – | – |
| C[C@]12CC[C@H]3[C@@H](CCC4=CC(=O)CC[C@@]43C)[C@@H]1CC[C@@H]2O [TESTOSTERONE] | – | > 10 | > 30 |
| CN1C(=O)OC(C)(C)C1=O [TRIMETHADIONE] | – | > 10 | > 10 |
| CC(=O)O[C@H]1C[C@@H]2CC[C@@H]3[C@H](CC[C@@]4(C)[C@H]3C[C@H]([N+]3(C)CCCCC3)[C@@H]4OC(C)=O)[C@@]2(C)C[C@@H]1N1CCCCC1 [VECURONIUM] | > 30 | – | – |
| C=CCN1CCCC1CNC(=O)c1cc(S(N)(=O)=O)cc(OC)c1OC (configuration not stated) [VERALIPRIDE] | > 30 | – | – |
